Publication PMC10484922, “Discovery of a selective and biologically active low-molecular weight antagonist of human interleukin-1β” (Nature Communications, 2023)
Values joined by “and” are separate entries in the source; they are usually repeats but may differ in a detail not shown here. Equal values may be shown once. Read-outs that look alike come from different tables or passages of the source.

Key:
IL-1β [1] = target: T1, IL-1β (Homo sapiens, UniProt P01584); test: protein-observed 1H-13C-HMQC NMR binding (I/Io of Leu60 Cδ1H3); set-up: Mature hIL-1β was expressed in Escherichia coli; made in house; host or cells: Escherichia coli BL21 (DE3), pET17b; conditions: for NMR I/Io values, individual experiments (Exp1-2) / NMR I/Io values, Mean: source data; for I/Io (ratio of peak intensities of Leu60 Cδ1H3 in 1H-13C-HMQC spectra in presence and absence of ligand): hIL-1β 50 µM, 500 µM compound
Description: ^1H–^13C- and ^1H–^15N-HMQC spectra were recorded on Bruker AVANCE 600 MHz and 800 MHz spectrometers equipped with TXI-cryocooled probeheads. In ligand binding experiments, protein concentrations were typically 50 μM in PBS, pH 7.4. Backbone assignments of hIL-1β in the ligand-bound state and unliganded state were obtained by a combination of a 3D triple resonance experiment HNCACB and a ^15N-edited NOESY spectrum, which were processed using TOPSPIN 3.2 and analyzed using CcpNmr AnalysisAssign 3.1.0[46]. ^15N-CEST experiments were run at weak B1 radiofrequency fields of 25 and 12.5 Hz on a Bruker AVANCE 800 MHz spectrometer with 113 increments and a total sweep width of 28 ppm in the pseudo-3D dimension. Peak intensities were extracted by fitting pseudo-Voigt lineshape models using peakipy (https://github.com/j-brady/peakipy). Fitted peak intensities were subsequently used to generate CEST profiles, and exchange parameters were fitted using ChemEx (https://github.com/gbouvignies/ChemEx).
Supplementary Figure 2. 13C-NMR and 19F-NMR reporter assays to monitor early
13C-HMQC spectra of hIL-1b (50 µM) were acquired in the presence (red) and absence (blue) of 500
µM compound and rows were extracted at the w1-frequency of the peak corresponding to Leu60 […]

IL-1α = target: T2, IL-1α (Homo sapiens, UniProt P01583); test: TR-FRET IL-1α/hIL-1R1 receptor displacement assay; assay type: biochemical; conditions: read-out: TR-FRET IL-1α IC50
T2 sequence (P01583 113-271): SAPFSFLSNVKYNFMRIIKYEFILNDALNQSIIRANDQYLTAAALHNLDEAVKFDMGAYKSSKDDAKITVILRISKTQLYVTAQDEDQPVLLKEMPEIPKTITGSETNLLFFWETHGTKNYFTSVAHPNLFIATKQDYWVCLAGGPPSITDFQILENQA
Description: After 1 h incubation at room temperature, hIL-1R1 (1–332; Alexa 647 labeled; 50 nM final concentration) and anti-His-Europium W1024 (Perkin Elmer; Cat.No. AD0401, 1 nM final concentration) were added to a final volume of 10 μl per well. After 1 h of incubation at room temperature, time-resolved fluorescence was measured at λexc = 320 ± 20 nm, λem = 620 ± 25 nm/665 ± 25 nm using a Pherastar FSX plate reader. All experiments were run in triplicates. The data provided a typical saturation-binding curve, and the IC50 values were calculated by fitting the results to the Hill equation using Prism 7.0 and the in-house software Helios.

IL-1β [2] = target: T1, IL-1β; test: TR-FRET IL-1β/hIL-1R1 receptor displacement assay; assay type: biochemical; conditions: read-out: TR-FRET IL-1β IC50
Description: After 1 h incubation at room temperature, hIL-1R1 (1–332; Alexa 647 labeled; 50 nM final concentration) and anti-His-Europium W1024 (Perkin Elmer; Cat.No. AD0401, 1 nM final concentration) were added to a final volume of 10 μl per well. […] All experiments were run in triplicates.

IL-1β [3] = target: T1, IL-1β; test: SPR binding of compounds to immobilized hIL-1β; set-up: Mature hIL-1β was expressed in Escherichia coli; made in house; host or cells: Escherichia coli BL21 (DE3), pET17b
Description: All SPR experiments were performed with an SPR-32 instrument (Bruker Daltonics SPR, Hamburg, Germany). SPR chips were from XanTec bioanalytics GmbH (Düsseldorf, Germany).
C-terminally avi-tagged hIL-1β protein was immobilized onto a SAHC200M chip with a neutravidin-coated surface. Immobilization was performed with a protein injection of 0.02 mg/ml IL-1β diluted in PBS pH 7.5 (Gibco 70011-036, 10×), 0.05% Tween-20 for 5 min at 10 μl/min. The running buffer for binding studies of compounds was PBS pH 7.4, 0.05% Tween-20, and 2% DMSO. For the correction of small DMSO variations between samples, injections of 6 solvent samples ranging from 1% to 3% DMSO were run. Compound measurements were performed in MICK mode (multiple injection cycles kinetic) with a dose–response of 10 concentrations. Dissociation constants for compounds (KD) were obtained by determining steady-state fit that followed the 1:1 Langmuir model.
Data analysis was performed with the Sierra Analyzer 3.4.0 software from Bruker. Signal intensities were corrected for nonspecific binding to the surface by subtracting intensities from the reference surface from those of the hIL-1β surfaces (first reference subtraction) and by subtracting the buffer injection (second reference subtraction). KD values were carried out by determining a reporting point close to the end of the injection, used for steady-state fit, in addition to a kinetic fit delivering kon- and koff-values; both fitting models followed the 1:1 Langmuir equation.
Supplementary Figure 3. De termination of binding af fi nit ie s for se l ec ted ana l ogues of 1 by SPR. a - d Gr ap hs of exemplary experimen ts are given , where the sat urat ion of hI L-1b immobil ized on a chip was monitored at various concentrations of compound 3, 12, 10, and 11, respectively. Th e saturati on reached at equ ilibri um (insert) was plo tt ed versus the admini stered concentration and the equ ilibri um bin ding constant was derived from a non-li near lea st square fitting routine. e equ ilibri um and f kinetic bin ding of (S)-2 to IL-1b (kon = 1. 15 x 105 M-1 s-1 and koff = 0. 12 s-1).

IL-1β [4] = target: T1, IL-1β; test: 19F-reporter displacement assay with (S)-1 as probe; assay type: binding; set-up: Mature hIL-1β was expressed in Escherichia coli; made in house; host or cells: Escherichia coli BL21 (DE3), pET17b
Description: Protein and reporter concentrations were 10 and 40 μM, respectively. To account for changes in sample homogeneity, samples contained 1-(2,2,2-trifluoroacetyl)piperidine-4-carboxylic acid as an internal reference for scaling signal intensities. Three concentrations of the competitor were typically measured, and the related displacement of the probe was converted into Ki-values according to Dalvit and Vulpetti[17]. […] This process was automated with FRPipe, an in-house developed Python script (https://github.com/Novartis/FRPipe) that allows for streamlined analysis of such experiments. […] For visual inspection, an overview containing relevant ^19F peaks, fitting curves, and proton spectra was plotted.
Supplementary Figure 2. 13C-NMR and 19F-NMR reporter assays to monitor early structure activity relationships of analogues of 1. a, b Early structure activity relationships monitored by protein-observed and c-f 19F-NMR reporter assays, exemplified for compound 8. a 1H-13C-HMQC spectra of hIL-1b (50 µM) were acquired in the presence (red) and absence (blue) of 500 µM compound and rows were extracted at the w1-frequency of the peak corresponding to Leu60 Cd1H3. b The degree of protein binding was estimated from the ratio I/I0, where I and I0 correspond to the signal in the presence and absence of compound, respectively. c For the assessment of the KI-values, the signal intensity of a reporter molecule (S)-1 was monitored in 19F-transverse relaxation experiments run in the absence and presence of increasing amounts of compound. d All intensities were scaled to the intensity of an internal standard (all signals in panel c and d are shifted on the X-axis for clarity). e KI-values were retrieved from theoretical binding curves calculated for each compound concentration8. f One-dimensional 1H-NMR spectra were recorded for each assay mixture to assess the structural integrity and solubility of the compound in the sample.
(1 picture or pasted object on this page, not shown here)

[5] = source data, read-out: SPR Kd, Mean
[6] = source data, read-out: SPR Kd, individual experiments (Exp1-5)
[7] = steady-state fit, 1:1 Langmuir, read-out: SPR KD
[8] = 19F-reporter Ki, protein 10 μM, reporter (S)-1 40 μM
[9] = 19F-reporter, individual experiments (Exp1-58), source data

T1 sequence (P01584 117-269): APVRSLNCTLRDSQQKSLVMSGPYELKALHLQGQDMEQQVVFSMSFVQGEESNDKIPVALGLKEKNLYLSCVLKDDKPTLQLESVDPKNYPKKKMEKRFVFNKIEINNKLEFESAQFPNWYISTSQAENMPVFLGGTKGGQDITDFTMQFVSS

Row | SMILES | binding to hIL-1β by protein-observed NMR (IL-1β [1]) | NMR I/Io values, individual experiments (Exp1-2) (IL-1β [1]) | IC50 (IL-1α) | I/Io (ratio of peak intensities of Leu60 Cδ1H3 in 1H-13C-HMQC spectra in presence and absence of ligand) (IL-1β [1]) | NMR I/Io values, Mean (IL-1β [1]) | IC50 (IL-1β [2]) | Kd (IL-1β [3]; [5]) | Kd (IL-1β [3]; [6]) | Kd (IL-1β [3]; [7]) | Ki (IL-1β [4]; [8]) | Ki (IL-1β [4]; [9]) | Ki (IL-1β [4]; protein 10 μM, reporter (S)-1 40 μM, read-out: 19F-reporter Ki) | Ki (IL-1β [4]; source data, read-out: 19F-reporter, individual experiments (Exp1-58))
1 | O=C1Nc2cc(C(F)(F)F)ccc2C1(O)c1cc(Cl)ccc1O (stereo not shown) [Compound 1] | validated as a binder by 2D NMR | 0.39 and 0.31 | > 200 µM | – | – | – | – | – | – | – | – | – | –
2 | Cc1ccc2c(c1)NC(=O)C2(O)c1cc(C(C)C)ccc1O (stereo not shown) [Compound 3] | – | 0.17 and 0.21 | – | 0.19 ± 0.03 (N = 2) | 0.19 | > 400 µM | 173 µM | 174 µM and 171 µM | 172 ± 2 µM | 151 ± 78 µM | 206 µM and 96 µM | – | –
3 | Cc1ccc2c(c1)N(C)C(=O)C2(O)c1cc(C(C)C)ccc1O (stereo not shown) [Compound 4] | lack of binding | 0.94 and 1.02 | – | 0.98 ± 0.06 (N = 2) | 0.98 | > 500 µM | – | – | – | > 1000 µM | – | – | –
4 | COc1ccc(Cl)cc1C1(O)C(=O)Nc2cc(C(F)(F)F)ccc21 (stereo not shown) [Compound 5] | lack of binding | 0.95 and 1.03 | – | 0.99 ± 0.06 (N = 2) | 0.99 | > 530 µM | – | – | – | > 1000 µM | – | – | –
5 | O=C1Nc2ccccc2C1(O)c1cc(Cl)ccc1O (stereo not shown) [Compound 6] | decreases protein binding | 0.57 and 0.61 | – | 0.59 ± 0.03 (N = 2) | 0.59 | > 500 µM | – | – | – | > 1000 µM | – | – | –
6 | O=C1Nc2cc(C(F)(F)F)ccc2C1(O)c1ccccc1O (stereo not shown) [Compound 7] | decreases protein binding | 0.41 and 0.48 | – | 0.45 ± 0.05 (N = 2) | – | > 500 µM | – | – | – | > 1000 µM | – | – | –
7 | Cc1ccc2c(c1)NC(=O)C2(O)c1cc(Cl)ccc1O (stereo not shown) [Compound 8] | – | 0.18 | > 200 µM | 0.18 ± 0.004 (N = 2) | 0.18 | > 200 µM | – | 312 µM (2×) and 158 µM | 261 ± 89 µM | 312 ± 124 µM | 110 µM and 195 µM and 206 µM and 210 µM and 215 µM and 223 µM and 233 µM and 254 µM (2×) and 260 µM (2×) and 120 µM and 261 µM and 262 µM and 268 µM and 278 µM and 281 µM and 282 µM and 283 µM and 287 µM and 292 µM and 293 µM and 133 µM and 295 µM and 309 µM and 317 µM and 325 µM and 331 µM (3×) and 337 µM and 338 µM and 340 µM and 162 µM and 345 µM and 362 µM and 382 µM and 387 µM and 393 µM and 395 µM and 399 µM and 427 µM and 439 µM (2×) and 164 µM and 454 µM and 456 µM and 471 µM and 475 µM and 580 µM and 600 µM and 622 µM (2×) and 86 µM and 183 µM (2×) and 184 µM (2×) | – | –
8 | O=C1Nc2cc(Cl)ccc2C1(O)c1cc(Cl)ccc1O (stereo not shown) [Compound 9] | – | – | – | 0.3 (N = 1) | – | – | – | – | – | 172 ± 35 µM | 197 µM and 147 µM | – | –
9 | Cc1ccc(O)c(C2(c3cn[nH]c3)C(=O)Nc3cc(C(F)(F)F)ccc32)c1 (stereo not shown) [Compound 12] | – | – | > 200 µM | <0.1 (N = 1) | – | > 200 µM | 138 µM | 145 µM and 130 µM | 138 ± 11 µM | – | – | 90 ± 41 µM | 119 µM and 61 µM
10 | Cc1ccc(O)c(C2(O)C(=O)Nc3cc(C(F)(F)F)ccc32)c1 (stereo not shown) [Compound 13] | – | – | – | 0.4 (N = 1) | – | – | – | – | > 1000 µM | – | – | – | –
11 | O=C1Nc2cc(C(F)(F)F)ccc2[C@]1(O)c1cc(Cl)ccc1O [Compound (S)-1] | – | – | > 200 µM | – | – | – | – | – | – | – | – | – | –
